Source: patent US20210087238A1, “CELL PENETRATING PEPTIDES AND RELATED COMPOSITIONS AND METHODS” (Phylogica Limited, priority 2017, published 2021)

Legend:
[1] = tested on: CHO-K1 cells stably-expressing EGFR receptor; assay: Bouganin assay: FPP_SpyT conjugated to EGFRAffibody_Bouganin_SpyC toxin, matched CHO-K1 lines (±hEGFR); type: cell-based; conditions: 100 nM toxin; 48 h; CHO-K1 EGFR vs CHO-K1
Description: FIG. 9 FPP compatibility with receptor binding delivery (RBD)-mediated delivery and half-life extension by PASylation. (A) a plot showing percent viability of CHO-K1 cells stably-expressing EGFR receptor or (B) CHO-K1 cells were treated with FPP_SpyT conjugated to EGFRAffybody_Bouganin SpyC (EGRFAffbd_Boug_SpyC) toxin. After 48 h incubation cell viability was assessed by resazurin reduction potential. […] Results are representative of 3 independent experiments. Error bars represent standard deviation from the mean of duplicate samples. **P<0.01, ***P<0.001 by one-way ANOVA with Dunnett's multiple comparison test. (C) T47D cells were treated with FPP_PAP_linker_SpyT with and without conjugation to PAS_SpyC recombinant protein. […] Linkers are Cathepsin B FKFL cleavage motif (BF), Cathepsin B Valine-Citrulline cleavage motif (Ba) and Furin RKKR cleavage motif (Fur). Results are representative of 2 independent experiments. Error bars represent standard deviation from the mean of duplicate samples.
All assays followed manufacturer's instructions.

CHO-K1 cells = assay: β-Lactamase (BLA) bioassay, CCF2-AM cleavage by flow cytometry; type: cell-based; conditions: SpyC-BLA/CPP-SpyT conjugates; comparator TAT-SpyTag conjugate
Description: CHO-K1 cells (seeded at 1×10^5 cells/well in 24-well plates) were incubated with purified SpyC_BLA (SEQ ID NO:90) and SpyC_BLA_FPP1.1 (SEQ ID NO:91) proteins at […]/5% CO2 for 2 hours. Cells were washed, detached by 5 mins incubation with trypsin, washed, loaded with the β-lactamase substrate CCF2-AM and analysed by Flow Cytometry; intracellular β-lactamase activity caused an emission shift from 510 nm to 450 nm. The percentages of β-lactamase positive cells for each sample were graphed against the concentration of protein added to the cells. […]
β-Lactamase is a bacterial enzyme that catalyses the opening of β-lactam rings. […] To address this need, β-Lactamase was expressed as C-terminal SpyC fusion, making SpyC-BLA (SEQ ID NO:90). […]
CCF2-AM (Thermofisher Scientific, Australia) is a Fluorescence Resonance Energy Transfer (FRET) substrate that is enzymatically cleaved by β-Lactamase. […] In the presence of β-Lactamase, the fluorescein moiety of CCF2 is enzymatically cleaved, resulting in the emission wavelength shifting to 447 nm (blue). β-Lactamase activity is quantified by measuring the ratio of blue fluorescence to green fluorescence.
The cell-penetrating and endosomal escape ability of FPP1.1 (SEQ ID NO:39) and sequence variant SpyC-BLA/CCP-SpyT conjugates was assessed by flow cytometry to determine cytosolic CCF2-AM cleavage by internalized β-Lactamase. […]

Sequence | delivery of EGFRAffbd_Boug_SpyC toxin, cell viability [1] | delivery of BLA to the cytosol (CHO-K1 cells)
KTQEKKKKQPPKPKKPKTQEKKKKQPPKPKR (Amino acid sequence of a Sindbis virus capsid-derived CPP (del1746)) [FPP1-del] | significantly improved delivery compared to RBD alone but retains RBD encoded specificity | –
PKKPKTQEKKKKQPPK (Amino acid sequence of a Sindbis virus capsid-derived CPP (SAR1)) [FPP1-SAR1] | – | ineffective in delivering BLA
